According to patent US20140336365A1, “CDR REGIONS OF MONOCLONAL ANTIBODY THAT ANTAGONIZE SPHINOGOSINE 1-PHOSPHATE AND RELATED METHODS” (priority 2011, published 2014):
One block for each molecule: values may come before it.

Key:
[1] = test system: tumor transplant model; details: cited from earlier work
[2] = test system: S1P receptors; details: with the exception of S1P2; by stable internalization; cited from earlier work
[3] = test system: MDA-MB-231; test: Cell proliferation by BrdU incorporation, MDA-MB-231; assay type: cell-based, human
Description: (§1) The experiment can first be performed in the absence of the antagonist. The effect of S1P on cell proliferation is determined by measuring bromodeoxyuridine (BrdU) incorporation. In this assay, cells are treated with S1P or vehicle control (0.1% fatty acid-free BSA) for 30 minutes before being exposed to a 30-minute BrdU pulse. Cells are then fixed with ethanol, labeled with a biotinylated α-BrdU antibody, incubated with streptavidin-peroxidase, developed with DAB, and counter-stained with hematoxylin. Nuclei of cells in S-phase during the 30-minute pulse are labeled brown, while non-proliferative cells show the blue hematoxylin stain.

[4] = test system: MCF-7 cells; test: Cell death by annexin V assay (FACS); assay type: cell-based, human; details: for % Annexin positive cells: overnight
Description: Quantification of cell death can be performed with an annexin V assay. […] of 500 nM S1P, then collected by trypsinization, and labeled with Alexafluor 488-conjugated annexin V (Invitrogen Corp, Carlsbad, Calif.) per manufacturer's protocol. Cells can be counted on a FACSAria cell sorting system and analyzed with FACSDiva software (BD Biosciences, San Jose, Calif.). […] This effect is attenuated by co-administration of 500 nM S1P.

[5] = test system: MDA-MB-231 cells; test: Cell motility, modified Boyden's chamber assay; assay type: cell-based, human; details: 1 μM S1P
Description: Cell motility is determined using a modified Boyden's chamber assay. MDA-MB-231 cells are introduced into the upper wells of collagen-coated chambers in serum-free DMEM and incubated for 30 minutes before the addition of either 1 μM S1P in BSA or BSA alone. At the indicated times, wells are isolated and fixed with 4% paraformaldehyde before non-migrated cells in the upper well are removed with a cotton swab. Membranes are then stained with DAPI to visualize individual migrated cells on the bottom of the membranes. Results shown are the averages of three independent experiments.

[6] = test system: MDA-MB-231 breast cancer cells; test: S1P-induced cytoskeletal rearrangement / cell rounding (phalloidin staining); assay type: cell-based, human
Description: MDA-MB-231 breast cancer cells are cultured on collagen-coated coverslips in the presence of 10% FBS using standard techniques. Because S1P is present at high concentrations in serum, BCCs are “serum-starved” in Dulbecco's modified Eagle medium (DMEM) for 12 hours prior to experimental manipulation. S1P is solubilized with bovine serum albumin (BSA) carrier and administered at a final concentration of 1 nM to 1 μM. Coverslips are collected at representative time points such as 10 minutes, 1 hr., 2 hrs., 4 hrs., and 6 hrs., fixed with 4% paraformaldehyde, and stained with rhodamine-conjugated phalloidin to label cytoskeletal actin.
The cell rounding experiment can be performed using an antagonist of S1P that binds to S1P3. For example, the antiserum described in Example 1 can be employed. Serum-starved MDA-MB-231 cells are incubated with preimmune serum or S1P3-reactive antiserum for 15 minutes prior to a 30-minute exposure to 10 nM S1P, then evaluated for response both in % cells responding and average cell area.
MDA-MB-231 cells are grown under standard culture conditions and serum starved for 24 hours prior to experimental manipulation. S1P3 antiserum or pre-immune serum obtained from the same rabbit is added to the media at a final concentration of 1:10,000 as indicated. 15 minutes later, S1P is added to the media to a final concentration of 10 nM. 30 minutes after S1P administration, cells are fixed with 4% paraformaldehyde, stained with rhodamine-conjugated phalloidin, and visualized with fluorescence microscopy. Rounded cells are counted by an experimenter blinded to the identity of the sample. Cell area is determined by quantification with ImageJ software.

[7] = test system: MDA-MB-231 cells; test: Tamoxifen toxicity, cell viability by phase contrast microscopy; assay type: cell-based, human
Description: The experiment can be performed first without a S1P antagonist. MDA-MB-231 cells are cultured under standard conditions in Dulbecco's Minimal Essential Media supplemented with 10% fetal bovine serum and glutamate. Cells are grown in the absence of serum for 24 hours prior to experimental manipulation. Tamoxifen (Tam) and S1P are added to the media at the indicated concentrations for the indicated times at the appropriate concentrations (e.g., 3 μM Tam, 10 μM Tarn, and 20 μM Tam) for appropriate times (e.g., 6 hrs. and 24 hrs.). Cell viability is observed by direct illumination with an inverted phase contrast microscope.
The tamoxifen toxicity experiment can be performed using an antagonist of S1P that binds to S1P3. For example, the antiserum described in Example 1 can be employed. MDA-MB-231 cells are cultured under standard conditions in Dulbecco's Minimal Essential Media supplemented with 10% fetal bovine serum and glutamate. Serum concentration is reduced to 1% for 24 hours prior to experimental manipulation. Tamoxifen and S1P are added to the media at the appropriate concentrations (e.g., 0 μM Tam, 10 μM Tam, and 20 μM Tam) for appropriate times (e.g., 6 hrs. and 24 hrs.). Cell viability is observed by direct illumination with an inverted phase contrast microscope.

[8] = test system: MCF-7; test: Cell proliferation by BrdU incorporation, MCF-7; assay type: cell-based, human
Description: as §1

[9] = biological target: T1, S1P3 (Homo sapiens, UniProt Q99500); test: Immunocytochemistry of hybridoma supernatants on HEK293 cells expressing tagged S1P3; assay type: binding; details: HEK293 cells expressing S1P3 fused to V5 or EGFP
T1 construct: expressed in transfected cells; host or cells: HEK293 (pcDNA3.1)
Excerpt: A synthetic peptide is synthesized with the amino acid sequence: KKTFSLSPTVWFLREG. This sequence corresponds to the extra-cellular loop between transmembrane domains 2 and 3 of cell surface receptor S1P3. This peptide is conjugated to keyhole limpet hemocyanin (KLH) and used for the immunization of 5 balb/c mice. Production of specific antibodies is confirmed by immunocytochemistry. HEK293 cells are transiently transfected with a mammalian expression vector (pcDNA3.1) encoding the full-length S1P3 protein fused to either a V5 epitope or enhanced green fluorescent protein (EGFP) on its C-terminal end. After 16-36 hours, cells are fixed with 4% paraformaldehyde, blocked with BSA, and exposed to antiserum from immunized mice (dilutions of 1:10, 1:25, 1:50, 1:100, 1:250, 1:500, 1:1,000, 1:2,000, 1:5,000), or supernatants from hybridoma cultures. […] Binding of antibodies from serum or supernatants is detected with a Cy3-conjugated secondary antibody. Specificity of binding is evaluated by coincidence of this signal with green fluorescence, either from the expressed EGFP fusion protein or from secondary antibody bound to the expressed V5 epitope.
Mice are immunized with KLH-conjugated peptide at regular intervals and evaluated by enzyme-linked immunosorbent assay (ELISA) and immunocytochemistry until sera are identified that contain specific antibodies (2-3 months). […]

T1 sequence (Q99500 whole entry, the tested form may be a part): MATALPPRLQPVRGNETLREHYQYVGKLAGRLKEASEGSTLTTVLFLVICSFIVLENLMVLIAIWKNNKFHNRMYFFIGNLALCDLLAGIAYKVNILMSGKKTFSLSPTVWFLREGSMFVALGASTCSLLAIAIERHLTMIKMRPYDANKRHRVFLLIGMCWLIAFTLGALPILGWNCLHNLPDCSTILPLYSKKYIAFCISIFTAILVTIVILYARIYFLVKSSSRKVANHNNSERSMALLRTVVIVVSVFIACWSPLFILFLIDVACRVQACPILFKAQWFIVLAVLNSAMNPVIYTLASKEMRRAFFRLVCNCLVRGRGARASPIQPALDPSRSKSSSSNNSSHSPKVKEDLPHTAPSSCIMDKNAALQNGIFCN

Molecule: CCCCCCCCc1ccc(CCC(N)(CO)CO)cc1 [FTY720]
Effect on angiogenesis and tumor growth [1]: inhibit angiogenesis and subsequent growth
Inhibition of S1P receptors [2]: effectively inhibit four of the five known receptors

Molecule: CCCCCCCCCCCCC/C=C/[C@@H](O)[C@@H](N)COP(=O)(O)O [S1P, Sphingosine 1-phosphate]
Effect on mitosis (BrdU incorporation), in words [3]: dose-dependent increase in mitosis
Mitosis by BrdU incorporation ([3]; 10 nM S1P): 71%
Mitosis by BrdU incorporation ([3]; 100 nM S1P): 84%
Mitosis by BrdU incorporation ([3]; 1 μM S1P): 88%
% Annexin positive cells ([4]; 500 nM S1P with 10 μM Tamoxifen): 15.9%
% Annexin positive cells ([4]; 500 nM S1P with 20 μM Tamoxifen): 20.2%
% Annexin positive cells ([4]; 500 nM S1P, 0 Tamoxifen): 6.2%
Effect on tamoxifen-induced annexin V binding, in words ([4]; co-administration of 500 nM S1P): attenuated
Effect on cell motility compared to vehicle control, in words [5]: rapid and significant increase in cell motility
Cell migration (migrated cells) ([5]; 1 hours): 672.5 Cells/mm^2
Cell migration (migrated cells) ([5]; 2 hours): 900 Cells/mm^2
Cell migration (migrated cells) ([5]; 4 hours): 1385 Cells/mm^2
Increase in migrated cells compared to vehicle control ([5]; two hour time point): nearly two-fold increase
Increase in migrated cells compared to vehicle control ([5]; within one hour): 74%
Cell shape change ([6]; 1 nM S1P): minor cell shape changes
Cell shape change ([6]; 10 nM S1P): dramatic cell rounding
% Rounded Cells Following S1P Treatment ([6]; 10 nM S1P, 30 min, no serum): 64%
Average Cell Area Following S1P Treatment ([6]; 10 nM S1P, 30 min, no serum): 960.4 μm^2
Cells with marked cytoskeletal rearrangement ([6]; 1 μM S1P, within 10 minutes): > 90%
Cell viability under tamoxifen with S1P ([7]; 1 μM S1P with 10 or 20 μM tamoxifen, 6 hours, serum-free): many viable cells remain
Survival under tamoxifen with S1P ([7]; S1P with 3 or 10 μM tamoxifen, 24 hour, serum-free): markedly improves survival
Effect on mitosis (BrdU incorporation), in words [8]: dose-dependent increase in mitosis
Mitosis by BrdU incorporation ([8]; 10 nM S1P): 49%
Mitosis by BrdU incorporation ([8]; 100 nM S1P): 45%
Mitosis by BrdU incorporation ([8]; 1 μM S1P): 61%

Molecule: CC/C(=C(\c1ccccc1)c1ccc(OCCN(C)C)cc1)c1ccccc1 [Tamoxifen]
% Annexin positive cells ([4]; 10 μM Tamoxifen, BSA (no S1P)): 20.1%
% Annexin positive cells ([4]; 20 μM Tamoxifen, BSA (no S1P)): 28.9%
Effect on annexin V binding (apoptotic cell death), in words ([4]; overnight treatment with tamoxifen): increase in annexin V binding
Cell viability ([7]; 3 μM tamoxifen, 24 hour, serum-free): most control cells are lost
Cell viability ([7]; 10 μM Tam, 6 hours, 1% FBS): appear normal
Cell viability ([7]; 10 μM tamoxifen, 6 hours, serum-free): only a few viable cells remain
Cell viability ([7]; 10 μM tamoxifen, 24 hour, serum-free): cell death is complete
Cell viability ([7]; 20 μM Tam, 6 hours, 1% FBS): begin to show evidence of cell death
Cell viability ([7]; 20 μM tamoxifen, 6 hours, serum-free): all cells are dead/dying

Presence of specific antibodies in hybridoma supernatant by immunocytochemistry [9]: positive
B1: EDDbeta7H9: Hybridoma EDDbeta7H9 (ATCC PTA-9973) produces the monoclonal antibody Mab7H9, which binds S1P3 (antibody, V domains shown)
VL: DIVMTQSHKFMSTSVGDRVSITCKASQDVSTGVVWYQQKEGQSPKLLIYSASYRYTGVPNRFTGSGSGTDFTFTISGVQAEDLAVYYCQQHYSSPTFGGGTKLEIKRADAAPTVSIFPPSS
VH: QVTLKESGPGILQPSQTLSLTCSFSGFSLSTSNMGVGWIRQPSGKGLEWLLHILWNDNKHYNPALKSRLTISKDTYKNQVFLKIANVDTADTATYYCARILYRSNYYVMDYWGQGTSVTVSSAKTTPPSVYPL
